# Measurements from patent publication US9725460B2, “Oridonin analogs, compositions, and methods related thereto” (THE BOARD OF REGENTS OF THE UNIVERSITY OF TEXAS SYSTEM, priority 2013, dated 2017).
# Read-outs that look alike come from different tables or passages of the source.
# Key:
# [1] = tested on: DU145; experiment: Cancer cell proliferation assay, DU145; type: cell-based; settings: Homo sapiens
# [2] = tested on: MDA-MB-231; experiment: MTT cancer cell proliferation assay, MDA-MB-231; type: cell-based, human
# Experimental: (§1) In Vitro Determination of Effects of Synthesized Diterpenoids on Cancer Cell Proliferation. Breast cancer cell lines MCF-7, MDA-MB-231, […] and MCF/ADR were seeded in 96-well plates at a density of 1×10^4 cells/well and treated with DMSO and 0.01, 0.1, 1, 5, 10, and 100 μM of individual compound for 48 h, and then 20 μL of 3-(4,5-dimethylthiazol-2-yl)-2,5-diphenyltetrazolium bromide (MTT) (5 mg/mL in PBS) was added to each well and further incubated for another 4 h. Then MTT solution was removed, and 150 μL of DMSO was added to each well. Absorbance of all wells was determined by measuring OD at 550 nm after a 10 min incubation on a 96-well GlowMaxate absorbance reader (Promega, Madison, Wis.). Each individual compound was tested in quadruplicate wells for each concentration.
# (§2) The growth inhibitory effects of the newly generated pyran-fused diterpenoids were evaluated in four breast cancer cell lines MCF-7 (ER-positive), MDAMB-231 (ER-negative and triple-negative), MDA-MB-468 (ER-negative and triple-negative) as well as MCF-7/ADR (adriamycin-resistant) using MTT assays as described in the Experimental Section.
# [3] = tested on: AsPC1; experiment: Cancer cell proliferation assay, AsPC1; type: cell-based; settings: Homo sapiens
# Experimental: (§3) In Vitro Determination of Effects of Synthesized Diterpenoids on Cancer Cell Proliferation. […] Then MTT solution was removed, and 150 μL of DMSO was added to each well. Absorbance of all wells was determined by measuring OD at 550 nm after a 10 min incubation on a 96-well GlowMaxate absorbance reader (Promega, Madison, Wis.). Each individual compound was tested in quadruplicate wells for each concentration.
# [4] = tested on: MCF-7; experiment: MTT cancer cell proliferation assay, MCF-7; type: cell-based, human
# Experimental: as §1, §2
# [5] = tested on: Panc-1; experiment: Cancer cell proliferation assay, Panc-1; type: cell-based; settings: Homo sapiens
# Experimental: as §3
# [6] = Aqueous solubility; type: physicochemical; settings: for solubility: water
# [7] = tested on: MDA-MB-468; experiment: MTT cancer cell proliferation assay, MDA-MB-468; type: cell-based, human; settings: Table 3, pyran-fused diterpenoids, MTT 48 h, mean ± SE of three experiments
# Experimental: as §1
# (§4) The growth inhibitory effects of the newly generated pyran-fused diterpenoids were evaluated in four breast cancer cell lines MCF-7 (ER-positive), MDAMB-231 (ER-negative and triple-negative), MDA-MB-468 (ER-negative and triple-negative) as well as MCF-7/ADR (adriamycin-resistant) using MTT assays as described in the Experimental Section. The capability of these new molecules to inhibit the growth of cancer cells was summarized in Table 3 and compared with that of adriamycin and 1 spontaneously.
# [8] = tested on: MCF-7/ADR; experiment: MTT growth inhibition, drug-resistant MCF-7/ADR; type: cell-based, human; settings: Table 3, adriamycin-resistant, MTT 48 h, mean ± SE of three experiments
# Experimental: as §1, §4
# [9] = tested on: breast, pancreatic, and prostate cancer cell lines; experiment: Anti-proliferation effects against cancer cell lines; type: cell-based, human; settings: summary of Tables 1 and 2
# Experimental: as §1
# [10] = DU-145, Table 1a, prostate cancer, read-out: IC50 (μM) DU145
# [11] = DU-145, Table 2b, mean of at least three experiments, read-out: Effect on proliferation DU145 (IC50)
# [12] = Homo sapiens, MDA-MB-231, Table 1a, breast cancer, read-out: IC50 (μM) MDA-MB-231
# [13] = Homo sapiens, MDA-MB-231, Table 2b, mean of at least three experiments, read-out: Effect on proliferation MDA-MB-231 (ER negative) (IC50)
# [14] = ASPC1, Table 1a, pancreatic cancer, read-out: IC50 (μM) AsPC1
# [15] = ASPC1, Table 2b, mean of at least three experiments, read-out: Effect on proliferation AsPC1 (IC50)
# [16] = Homo sapiens, MCF7, Table 1a, breast cancer, read-out: IC50 (μM) MCF-7
# [17] = Homo sapiens, MCF7, Table 2b, mean of at least three experiments, read-out: Effect on proliferation MCF-7 (ER positive) (IC50)
# [18] = PANC-1, Table 1a, pancreatic cancer, read-out: IC50 (μM) Panc-1
# [19] = PANC-1, Table 2b, mean of at least three experiments, read-out: Effect on proliferation Panc-1 (IC50)
# [20] = in the form of HCl salt, read-out: Aqueous solubility (saturated concentration)
# [21] = Homo sapiens, MDA-MB-231, 48 h, Table 3, pyran-fused diterpenoids, MTT 48 h, mean ± SE of three experiments, read-out: IC50 (μM) MDA-MB-231
# [22] = Homo sapiens, MCF7, 48 h, Table 3, pyran-fused diterpenoids, MTT 48 h, mean ± SE of three experiments, read-out: IC50 (μM) MCF-7
# [23] = Homo sapiens, NCI/ADR-RES, 48 h
structure (smiles),measurement,setting,value
"C=C1C(=O)[C@]23[C@H](O)[C@H]1CC[C@H]2[C@@]12CO[C@]3(O)[C@@H](O)[C@@H]1C(C)(C)Cc1sc(NC(=N)N)nc12 [CYD-6-29, 1-((5aR,6S,7S,7aR,10S,12aS,12bR,15R)-6,7,15-trihydroxy-5,5-dimethyl-9-methylene-8-oxo-5,5a,6,7,8,9,10,11,12,12a-decahydro-4H-7,12b-(epoxymethano)-7a,10-methanocyclohepta[7,8]naphtho[1,2-d]thiazol-2-yl)guanidine]",IC50,[1]; [10],35.9 µM
same,IC50,[1]; [11],> 10 µM
same,IC50,[2]; [12],> 10 µM
same,IC50,[2]; [13],> 10 µM
same,IC50,[3]; [14],> 10 µM
same,IC50,[3]; [15],> 10 µM
same,IC50,[4]; [16],3.43 µM
same,IC50,[4]; [17],3.4 µM
same,IC50,[5]; [18],15.4 µM
same,IC50,[5]; [19],> 10 µM
same,solubility,[6]; [20],> 100 mg/mL
"C=C1C(=O)[C@@]23C(CCC1[C@H]2O)[C@@]12COC3(O)[C@@H](O)C1C(C)(C)Cc1sc(NCCN3CCCCC3)nc12 (stereo in doubt) [CYD-6-20, (6S,7S,7aR,10R,12bR,15R)-6,7,15-trihydroxy-5,5-dimethyl-9-methylene-2-((2-(piperidin-1-yl)ethyl)amino)-5,5a,6,7,10,11,12,12a-octahydro-4H-7,12b(epoxymethano)-7a,10-methanocyclohepta[7,8]naphtho[1,2-d]thiazol-8(9H)-one]",IC50,[1]; [10],1.16 µM
same,IC50,[1]; [11],1.2 µM
same,IC50,[2]; [12],1.83 µM
same,IC50,[2]; [13],1.8 µM
same,IC50,[3]; [14],1.1 µM
same,IC50,[3]; [15],1.1 µM
same,IC50,[4]; [16],1 µM
same,IC50,[4]; [17],1 µM
same,IC50,[5]; [18],1.54 µM
same,IC50,[5]; [19],1.5 µM
same,solubility,[6]; [20],> 100 mg/mL
C=C1C(=O)[C@]23[C@H](O)[C@H]1CC[C@H]2[C@@]12CO[C@@]3(O)[C@@H](O)[C@@H]1C(C)(C)CC1=C2O[C@@H](OCC)CC1 [CYD-8-50],IC50,"[7]; Homo sapiens, MDA-MB-468, 48 h",2.24 ± 0.68 µM
same,IC50,[2]; [21],3.32 ± 1.01 µM
same,IC50,[4]; [22],1.9 ± 0.97 µM
same,IC50,[8]; [23],3.18 ± 0.89 µM
"C=C1C(=O)[C@]23[C@H](O)[C@H]1CC[C@H]2[C@@]12CO[C@]3(O)[C@@H](O)[C@@H]1C(C)(C)Cc1sc(NC(C)C)nc12 [CYD-6-30, (5aR,6S,7S,7aR,10S,12aS,12bR,15R)-6,7,15-trihydroxy-2-(isopropylamino)-5,5-dimethyl-9-methylene-5,5a,6,7,10,11,12,12a-octahydro-4H-7,12b-(epoxymethano)-7a,10-methanocyclohepta[7,8]naphtho[1,2-d]thiazol-8(9H)-one]",IC50,[1]; [10],5.31 µM
same,IC50,[1]; [11],5.3 µM
same,"IC50 values, anti-proliferation effects against cancer cell lines",[9],low micromolar to nanomolar
same,IC50,[2]; [12],0.28 µM
same,IC50,[2]; [13],0.3 µM
same,IC50,[3]; [14],1.45 µM
same,IC50,[3]; [15],1.4 µM
same,IC50,[4]; [16],0.82 µM
same,IC50,[4]; [17],0.8 µM
same,IC50,[5]; [18],3.27 µM
same,IC50,[5]; [19],3.3 µM
C=C1C(=O)[C@@]23[C@@H]4OC(C)(C)O[C@@]25OC[C@]2(C6=C(CC[C@H](OCCCN=[N+]=[N-])O6)CC(C)(C)[C@H]2[C@@H]5O)[C@@H]3CC[C@@H]14 [CYD-8-87],IC50,"[7]; Homo sapiens, MDA-MB-468, 48 h",6.63 ± 0.77 µM
same,IC50,[2]; [21],7.57 ± 0.44 µM
same,IC50,[4]; [22],7.79 ± 3.18 µM
same,IC50,[8]; [23],8.6 ± 0.7 µM
C=C1C(=O)[C@@]23[C@@H]4OC(C)(C)O[C@@]25OC[C@]2(C6=C(CC[C@@H](OCC)O6)CC(C)(C)[C@H]2[C@@H]5O)[C@@H]3CC[C@@H]14 [CYD-8-45-2],IC50,[7],0.52 ± 0.18 µM
same,IC50,"[2]; Table 3, pyran-fused diterpenoids, MTT 48 h, mean ± SE of three experiments, read-out: IC50 (μM) MDA-MB-231",0.54 ± 0.14 µM
same,IC50,"[4]; Table 3, pyran-fused diterpenoids, MTT 48 h, mean ± SE of three experiments, read-out: IC50 (μM) MCF-7",0.44 ± 0.27 µM
same,IC50,[8],1.64 ± 0.72 µM
C=C1C(=O)[C@@]23[C@@H]4OC(C)(C)O[C@@]25OC[C@]2(C6=C(CC[C@@H](SCC)O6)CC(C)(C)[C@H]2[C@@H]5O)[C@@H]3CC[C@@H]14 [CYD-8-84],IC50,"[7]; Homo sapiens, MDA-MB-468, 48 h",2.83 ± 0.42 µM
same,IC50,[2]; [21],2.87 ± 0.54 µM
same,IC50,[4]; [22],2.3 ± 1.4 µM
same,IC50,[8]; [23],3.82 ± 0.47 µM
"C=C1C(=O)[C@@]23C(CC[C@H]1[C@H]2O)[C@@]12CO[C@]3(O)[C@@H](O)C1C(C)(C)Cc1sc(C)nc12 (stereo partly drawn) [CYD-6-19, (6S,7S,7aR,10R,12bR,15R)-6,7,15-trihydroxy-2,5,5-trimethyl-9-methylene-5,5a,6,7,10,11,12,12a-octahydro-4H-7,12b-(epoxymethano)-7a,10-methanocyclohepta[7,8]naphtho[1,2-d]thiazol-8(9H)-one]",IC50,"[1]; DU-145, read-out: Effect on proliferation DU145 (IC50)",7.6 µM
same,IC50,"[1]; DU-145, read-out: IC50 (μM) DU145",7.63 µM
same,IC50,"[2]; Homo sapiens, MDA-MB-231, read-out: Effect on proliferation MDA-MB-231 (ER negative) (IC50)",6.9 µM
same,IC50,"[2]; Homo sapiens, MDA-MB-231, read-out: IC50 (μM) MDA-MB-231",6.88 µM
same,IC50,"[3]; ASPC1, read-out: Effect on proliferation AsPC1 (IC50)",6.5 µM
same,IC50,"[3]; ASPC1, read-out: IC50 (μM) AsPC1",6.46 µM
same,IC50,"[4]; Homo sapiens, MCF7, read-out: Effect on proliferation MCF-7 (ER positive) (IC50)",2.6 µM
same,IC50,"[4]; Homo sapiens, MCF7, read-out: IC50 (μM) MCF-7",2.63 µM
same,IC50,"[5]; PANC-1, read-out: Effect on proliferation Panc-1 (IC50)",7.8 µM
same,IC50,"[5]; PANC-1, read-out: IC50 (μM) Panc-1",7.83 µM
same,Aqueous solubility compared with oridonin,[6]; FIG. 2,significantly improved solubility
same,solubility,"[6]; compound as such, read-out: Aqueous solubility",4.47 mg/mL
C=C1C(=O)[C@@]23[C@@H]4OC(C)(C)O[C@@]25OC[C@]2(C6=C(C[C@H]7CCCO[C@H]7O6)CC(C)(C)[C@H]2[C@@H]5O)[C@@H]3CC[C@@H]14 [CYD-8-74-2],IC50,"[7]; Homo sapiens, MDA-MB-468, 48 h",3.33 ± 0.58 µM
same,IC50,[2]; [21],2.53 ± 0.77 µM
same,IC50,[4]; [22],2.39 ± 0.78 µM
same,IC50,[8]; [23],2.89 ± 0.32 µM
C=C1C(=O)[C@@]23[C@@H]4OC(C)(C)OC25OC[C@]2(C6=C(CC[C@H](OCCCC)O6)CC(C)(C)[C@H]2[C@@H]5O)[C@@H]3CC[C@@H]14 [CYD-8-69-1],IC50,"[7]; Homo sapiens, MDA-MB-468, 48 h",2.98 ± 0.67 µM
same,IC50,[2]; [21],2.23 ± 0.39 µM
same,IC50,[4]; [22],2.41 ± 1.45 µM
same,IC50,[8]; [23],3.8 ± 1.15 µM
C=C1C(=O)[C@@]23[C@@H]4OC(C)(C)O[C@@]25OC[C@]2(C6=C(CC[C@@H](OCCCl)O6)CC(C)(C)[C@H]2[C@@H]5O)[C@@H]3CC[C@@H]14 [CYD-8-65-2],IC50,"[7]; Homo sapiens, MDA-MB-468, 48 h",7.26 ± 0.23 µM
same,IC50,[2]; [21],7.15 ± 1.27 µM
same,IC50,[4]; [22],6.76 ± 3.43 µM
same,IC50,[8]; [23],8.74 ± 0.27 µM
